Results taken from US10364222B2, “Cyclic amine derivative and medical use thereof” (Toray Industries, Inc., priority 2016, dated 2019).

Columns and labels:
[1] = system: imiquimod-induced mouse psoriasis model; test: Imiquimod-induced mouse psoriasis model; assay type: in vivo; conditions: BALB/c mice; 10 mg/kg orally once daily from 3 to 7 days after induction; vs vehicle, Student's t-test P<0.05
Procedure: Using increase in the ear thickness as an index of exacerbation of symptoms, the effect of the cyclic amine derivative (I) or a pharmacologically acceptable salt thereof in an imiquimod-induced mouse psoriasis model was evaluated. The imiquimod-induced mouse psoriasis model was prepared by a partially modified method by Schaper et al. (The Journal of Dermatological Science, 2013, Vol. 71, No. 1, p. 29-36).
BALB/c mice (male, 7 weeks old) (Charles River Laboratories Japan, Inc.) were used at 8 weeks old after preliminary breeding. To induce psoriasis-like symptoms, 5 mg each of BESELNA CREAM 5% was applied once daily to the outside of the right and left auricles of the mice for 8 days from the day of first administration of imiquimod (hereinafter referred to as induction day) to 7 days after induction (dose of imiquimod, 0.5 mg/body/day).
The test compound at a dose of 10 mg/kg was administered to the mice once daily for 5 days from 3 days after induction to 7 days after induction. As the test compound, the compound of Example 20, the compound of Example 29, and the compound of Example 57 were used. The compound of Example 20, the compound of Example 29, and the compound of Example 57 were suspended in a 0.5 w/v % methylcellulose solution and orally administered. The group in which the compound of Example 20 was administered to mice was defined as the Example-20 compound administration group, the group in which the compound of Example 29 was administered was defined as the Example-29 compound administration group, and the group in which the compound of Example 57 was administered was defined as the Example-57 compound administration group. In the vehicle administration group, a vehicle of each test compound (0.5 w/v % methylcellulose solution) was similarly administered.
The right and left ear thickness before administration of imiquimod (before induction) on the induction day and the right and left ear thickness on the 8th day after induction were measured with a digital micrometer (Mitutoyo Corporation). […]

[2] = target: T1, ligand-binding domain of RORγ (RORγ-LBD) (Homo sapiens, UniProt P51449); test: Inhibitory effect on RORγ-coactivator binding (LanthaScreen TR-FRET RORγ Coactivator Assay); conditions: at 33 μmol/L of the test compound; read-out: RORγ-coactivator binding inhibition rate (%)
T1 construct: purchased Invitrogen
T1 sequence (P51449 269-508 limits assumed): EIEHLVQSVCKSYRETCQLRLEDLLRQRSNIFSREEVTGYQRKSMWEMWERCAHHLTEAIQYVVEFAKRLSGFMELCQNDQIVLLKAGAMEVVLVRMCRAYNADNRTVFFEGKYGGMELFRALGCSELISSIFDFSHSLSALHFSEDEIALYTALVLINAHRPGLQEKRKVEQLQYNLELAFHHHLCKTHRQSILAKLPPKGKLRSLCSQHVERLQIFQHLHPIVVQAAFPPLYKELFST
In short: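 TR-FRET: 4 nmol/L GST-RORγ-LBD with compound (1% DMSO) in Coregulator Buffer D plus 5 mmol/L DTT, then 150 nmol/L fluorescein-TRAP220/DRIP-2 and 32 nmol/L Tb-anti-GST antibody; 16–24 hours at room temperature. 520/495 nm ratio (320 nm excitation), background-corrected against control, gives % inhibition of coactivator binding.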

SMILES | change in the ear thickness (ear thickness on the 8th day after induction − before induction) [1] | inhibition at 33 µM [2]
CN(CC(=O)N1CCCC[C@@H]1C(=O)Nc1ccc(-c2ccccc2OC(F)(F)F)c(Cl)c1)S(C)(=O)=O [Example 29, (R)-N-(2-chloro-2′-(trifluoromethoxy)-[1,1′-biphenyl]-4-yl)-1-(2-(N-methylmethylsulfonamide)acetyl)piperidine-2-carboxamide] | statistically significantly suppressed | 101%
CC(=O)N1CCCC[C@@H]1C(=O)Nc1ccc(-c2ccccc2OC(F)(F)F)c(Cl)c1 [Example 20, (R)-1-acetyl-N-(2-chloro-2′-(trifluoromethoxy)-[1,1′-biphenyl]-4-yl)piperidine-2-carboxamide] | statistically significantly suppressed | 101%
O=C(Nc1ccc(-c2ccccc2OC(F)(F)F)c(Cl)c1)[C@H]1CCCCN1C(=O)Cn1cnnn1 [Example 57, (R)-1-(2-(1H-tetrazol-1-yl)acetyl)-N-(2-chloro-2′-(trifluoromethoxy)-[1,1′-biphenyl]-4-yl)piperidine-2-carboxamide] | statistically significantly suppressed | 103%
